Laboratory results from PubChem BioAssay AID1918935 (Molecular Pharmacology Branch, DTP, NCI, 2023).

Test system: 324938-238-R-J1-PDC complex spheroid viability
Assay: Anticancer human tumor 324938-238-R-J1-PDC patient-derived bladder carcinoma cell line growth inhibition
Details: for IC50: curve of first compound; for viability, T/C: stronger effect = lower value
Method in brief: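 Complex spheroids of tumor cells with HUVEC and human MSCs, exposed to iadademstat combined with other agents. Each agent tested in half-log steps from near clinical Cmax (else 10 microM top), DMSO ≤0.25%.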

[1] = second compound 0.1 µM, first compound 0.000949 µM
[2] = second compound 0.1 µM, first compound 0.003 µM
[3] = second compound 0.1 µM, first compound 0.00949 µM
[4] = second compound 0.1 µM, first compound 0.03 µM
[5] = second compound 0.1 µM, first compound 0.0949 µM
[6] = second compound 0.1 µM, first compound 0.3 µM
[7] = second compound 0.316 µM, first compound 0.000949 µM
[8] = second compound 0.316 µM, first compound 0.003 µM
[9] = second compound 0.316 µM, first compound 0.00949 µM
[10] = second compound 0.316 µM, first compound 0.03 µM
[11] = second compound 0.316 µM, first compound 0.0949 µM
[12] = second compound 0.316 µM, first compound 0.3 µM
[13] = second compound 1 µM, first compound 0.000949 µM
[14] = second compound 1 µM, first compound 0.003 µM
[15] = second compound 1 µM, first compound 0.00949 µM
[16] = second compound 1 µM, first compound 0.03 µM
[17] = second compound 1 µM, first compound 0.0949 µM
[18] = second compound 1 µM, first compound 0.3 µM
[19] = second compound 3.16 µM, first compound 0.000949 µM
[20] = second compound 3.16 µM, first compound 0.003 µM
[21] = second compound 3.16 µM, first compound 0.00949 µM
[22] = second compound 3.16 µM, first compound 0.03 µM
[23] = second compound 3.16 µM, first compound 0.0949 µM
[24] = second compound 3.16 µM, first compound 0.3 µM
[25] = second compound 10 µM, first compound 0.000949 µM
[26] = second compound 10 µM, first compound 0.003 µM
[27] = second compound 10 µM, first compound 0.00949 µM
[28] = second compound 10 µM, first compound 0.03 µM
[29] = second compound 10 µM, first compound 0.0949 µM
[30] = second compound 10 µM, first compound 0.3 µM
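Also: spheroids also contain HUVEC and human MSCs and agents combined with iadademstat; spheroids exposed to agents for 7 days before readout.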

Compound: CCc1c2c(nc3ccc(O)cc13)-c1cc3c(c(=O)n1C2)COC(=O)[C@]3(O)CC + NC1CCC(NC2CC2c2ccccc2)CC1
- IC50 (second compound 0.1 µM): < 0.949 nM
- IC50 (second compound 0.316 µM): < 0.949 nM
- IC50 (second compound 1 µM): < 0.949 nM
- IC50 (second compound 3.16 µM): < 0.949 nM
- IC50 (second compound 10 µM): < 0.949 nM
- viability, T/C [1]: 8.91%
- viability, T/C [2]: 8.28%
- viability, T/C [3]: 5.05%
- viability, T/C [4]: 2.05%
- viability, T/C [5]: 0.06%
- viability, T/C [6]: 0.13%
- viability, T/C [7]: 7.86%
- viability, T/C [8]: 10.2%
- viability, T/C [9]: 6.24%
- viability, T/C [10]: 2.68%
- viability, T/C [11]: 0.06%
- viability, T/C [12]: 0.11%
- viability, T/C [13]: 8.46%
- viability, T/C [14]: 8.97%
- viability, T/C [15]: 6.82%
- viability, T/C [16]: 2.81%
- viability, T/C [17]: 0.06%
- viability, T/C [18]: 0.1%
- viability, T/C [19]: 9.74%
- viability, T/C [20]: 9.76%
- viability, T/C [21]: 7.3%
- viability, T/C [22]: 2.95%
- viability, T/C [23]: 0.08%
- viability, T/C [24]: 0.11%
- viability, T/C [25]: 9.49%
- viability, T/C [26]: 9.84%
- viability, T/C [27]: 8.1%
- viability, T/C [28]: 2.75%
- viability, T/C [29]: 0.08%
- viability, T/C [30]: 0.13%

Compound: Nc1ccccc1NC(=O)c1ccc(CNC(=O)OCc2cccnc2)cc1 + NC1CCC(NC2CC2c2ccccc2)CC1
- IC50 (second compound 0.1 µM): 412 nM
- IC50 (second compound 0.316 µM): 390 nM
- IC50 (second compound 1 µM): 465 nM
- IC50 (second compound 3.16 µM): 363 nM
- IC50 (second compound 10 µM): 375 nM
- viability, T/C [3]: 92%
- viability, T/C [4]: 81.6%
- viability, T/C [5]: 68.5%
- viability, T/C [6]: 54.4%
- viability, T/C (second compound 0.1 µM, first compound 0.949 µM): 39.9%
- viability, T/C (second compound 0.1 µM, first compound 3 µM): 17.2%
- viability, T/C [9]: 84.3%
- viability, T/C [10]: 88%
- viability, T/C [11]: 67.6%
- viability, T/C [12]: 55%
- viability, T/C (second compound 0.316 µM, first compound 0.949 µM): 34.6%
- viability, T/C (second compound 0.316 µM, first compound 3 µM): 12.9%
- viability, T/C [15]: 79%
- viability, T/C [16]: 76.2%
- viability, T/C [17]: 73.3%
- viability, T/C [18]: 54.5%
- viability, T/C (second compound 1 µM, first compound 0.949 µM): 39.2%
- viability, T/C (second compound 1 µM, first compound 3 µM): 14.9%
- viability, T/C [21]: 81.5%
- viability, T/C [22]: 72.4%
- viability, T/C [23]: 62%
- viability, T/C [24]: 54.9%
- viability, T/C (second compound 3.16 µM, first compound 0.949 µM): 37.9%
- viability, T/C (second compound 3.16 µM, first compound 3 µM): 16%
- viability, T/C [27]: 76.8%
- viability, T/C [28]: 68.9%
- viability, T/C [29]: 68.2%
- viability, T/C [30]: 50.5%
- viability, T/C (second compound 10 µM, first compound 0.949 µM): 37.8%
- viability, T/C (second compound 10 µM, first compound 3 µM): 12.4%

Compound: Nc1ccn(C2OC(CO)C(O)C2(F)F)c(=O)n1 (stereo not given) + NC1CCC(NC2CC2c2ccccc2)CC1
- IC50 (second compound 0.1 µM): < 0.949 nM
- IC50 (second compound 0.316 µM): < 0.949 nM
- IC50 (second compound 1 µM): < 0.949 nM
- IC50 (second compound 3.16 µM): < 0.949 nM
- IC50 (second compound 10 µM): < 0.949 nM
- viability, T/C [1]: 7.42%
- viability, T/C [2]: 7.71%
- viability, T/C [3]: 7.38%
- viability, T/C [4]: 6.53%
- viability, T/C [5]: 5.05%
- viability, T/C [6]: 5.23%
- viability, T/C [7]: 10.3%
- viability, T/C [8]: 7.95%
- viability, T/C [9]: 6.91%
- viability, T/C [10]: 7.37%
- viability, T/C [11]: 5.53%
- viability, T/C [12]: 5.05%
- viability, T/C [13]: 9.63%
- viability, T/C [14]: 9.08%
- viability, T/C [15]: 8.5%
- viability, T/C [16]: 7.08%
- viability, T/C [17]: 5.53%
- viability, T/C [18]: 5.33%
- viability, T/C [19]: 10.8%
- viability, T/C [20]: 8.82%
- viability, T/C [21]: 9.28%
- viability, T/C [22]: 7.53%
- viability, T/C [23]: 5.27%
- viability, T/C [24]: 5.32%
- viability, T/C [25]: 11.8%
- viability, T/C [26]: 9.1%
- viability, T/C [27]: 9.36%
- viability, T/C [28]: 8.14%
- viability, T/C [29]: 4.93%
- viability, T/C [30]: 5.8%

Compound: O=C(c1cc(Cc2n[nH]c(=O)c3ccccc23)ccc1F)N1CCN(C(=O)C2CC2)CC1 + NC1CCC(NC2CC2c2ccccc2)CC1
- IC50 (second compound 0.1 µM): 2900 nM
- IC50 (second compound 0.316 µM): 2760 nM
- IC50 (second compound 1 µM): 3970 nM
- IC50 (second compound 3.16 µM): 2720 nM
- IC50 (second compound 10 µM): 2480 nM
- viability, T/C (second compound 0.1 µM, first compound 0.0316 µM): 80.8%
- viability, T/C (second compound 0.1 µM, first compound 0.1 µM): 80.9%
- viability, T/C (second compound 0.1 µM, first compound 0.316 µM): 86.4%
- viability, T/C (second compound 0.1 µM, first compound 1 µM): 68.1%
- viability, T/C (second compound 0.1 µM, first compound 3.16 µM): 49.9%
- viability, T/C (second compound 0.1 µM, first compound 10 µM): 41.5%
- viability, T/C (second compound 0.316 µM, first compound 0.0316 µM): 78.7%
- viability, T/C (second compound 0.316 µM, first compound 0.1 µM): 82.7%
- viability, T/C (second compound 0.316 µM, first compound 0.316 µM): 83.7%
- viability, T/C (second compound 0.316 µM, first compound 1 µM): 64.4%
- viability, T/C (second compound 0.316 µM, first compound 3.16 µM): 49.8%
- viability, T/C (second compound 0.316 µM, first compound 10 µM): 36.5%
- viability, T/C (second compound 1 µM, first compound 0.0316 µM): 77.7%
- viability, T/C (second compound 1 µM, first compound 0.1 µM): 71.3%
- viability, T/C (second compound 1 µM, first compound 0.316 µM): 80%
- viability, T/C (second compound 1 µM, first compound 1 µM): 69.3%
- viability, T/C (second compound 1 µM, first compound 3.16 µM): 53.3%
- viability, T/C (second compound 1 µM, first compound 10 µM): 37.9%
- viability, T/C (second compound 3.16 µM, first compound 0.0316 µM): 73.2%
- viability, T/C (second compound 3.16 µM, first compound 0.1 µM): 74.1%
- viability, T/C (second compound 3.16 µM, first compound 0.316 µM): 73.2%
- viability, T/C (second compound 3.16 µM, first compound 1 µM): 71%
- viability, T/C (second compound 3.16 µM, first compound 3.16 µM): 46.9%
- viability, T/C (second compound 3.16 µM, first compound 10 µM): 39.6%
- viability, T/C (second compound 10 µM, first compound 0.0316 µM): 70.6%
- viability, T/C (second compound 10 µM, first compound 0.1 µM): 65.8%
- viability, T/C (second compound 10 µM, first compound 0.316 µM): 77%
- viability, T/C (second compound 10 µM, first compound 1 µM): 59.3%
- viability, T/C (second compound 10 µM, first compound 3.16 µM): 49.9%
- viability, T/C (second compound 10 µM, first compound 10 µM): 45.1%
